Reference: the supplement of paper PMC10307832

What was measured:
Assay in all cases: relative viability (nuclei count vs DMSO), 5 days (fraction); higher = more cells survive
[1] = compound: C[C@@]1(C(=O)Nc2ccc(F)nc2)CCCN1c1nc(Nc2cc(C3CC3)n[nH]2)c2cccn2n1 + Cc1nc(NC(=O)N2CCC[C@H]2C(N)=O)sc1-c1ccnc(C(C)(C)C(F)(F)F)c1 [Alpelisib] (partner 2 µM)
Procedure, shortened: (§1)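 Lung cancer cell lines were pin-tool dosed in 1536-well plates on the day after seeding, with either a lone drug or a fixed anchor-drug dose plus five library-drug doses (not always all listed) in √10 steps. Nuclei were counted on 4× images after 5 days. Relative viability is the ratio of treated-well to vehicle-well nuclei counts, with each value a median of duplicate plates.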

Motesanib + Pictilisib = compound: CC1(C)CNc2cc(NC(=O)c3cccnc3NCc3ccncc3)ccc21 [Motesanib] + CS(=O)(=O)N1CCN(Cc2cc3nc(-c4cccc5[nH]ncc45)nc(N4CCOCC4)c3s2)CC1 [Pictilisib] (partner 1 µM)
Procedure, shortened: as §1

Motesanib + Lapatinib = compound: CC1(C)CNc2cc(NC(=O)c3cccnc3NCc3ccncc3)ccc21 [Motesanib] + CS(=O)(=O)CCNCc1ccc(-c2ccc3ncnc(Nc4ccc(OCc5cccc(F)c5)c(Cl)c4)c3c2)o1 [Lapatinib] (partner 2 µM)
Procedure, shortened: as §1

[2] = compound: C[C@@]1(C(=O)Nc2ccc(F)nc2)CCCN1c1nc(Nc2cc(C3CC3)n[nH]2)c2cccn2n1 + CS(=O)(=O)CCNCc1ccc(-c2ccc3ncnc(Nc4ccc(OCc5cccc(F)c5)c(Cl)c4)c3c2)o1 [Lapatinib] (partner 2 µM)
Procedure, shortened: as §1

Cell Line	relative viability ([1]; first compound 0.04 µM)	relative viability ([1]; first compound 0.1265 µM)	relative viability ([1]; first compound 0.4 µM)	relative viability ([1]; first compound 1.265 µM)	relative viability (Motesanib + Pictilisib; first compound 0.01 µM)	relative viability (Motesanib + Pictilisib; first compound 0.03162 µM)	relative viability (Motesanib + Pictilisib; first compound 0.3162 µM)	relative viability (Motesanib + Pictilisib; first compound 1 µM)	relative viability (Motesanib + Lapatinib; first compound 0.01 µM)	relative viability (Motesanib + Lapatinib; first compound 0.03162 µM)	relative viability (Motesanib + Lapatinib; first compound 0.3162 µM)	relative viability (Motesanib + Lapatinib; first compound 1 µM)	relative viability ([2]; first compound 0.04 µM)	relative viability ([2]; first compound 0.1265 µM)	relative viability ([2]; first compound 0.4 µM)	relative viability ([2]; first compound 1.265 µM)	relative viability (Motesanib + Pictilisib; first compound 0.1 µM)	relative viability (Motesanib + Lapatinib; first compound 0.1 µM)
NCI-H23	0.595	0.407	0.41	0.601	0.415	0.41	0.562	0.53	1.14	0.864	1.13	1.11	0.958	0.496	0.695	0.6	–	–
HCC-366	0.205	0.162	0.141	0.163	0.145	0.149	0.139	0.137	0.913	1.08	1.13	1.06	1.22	0.946	1.07	0.883	0.139	1.06
EMC-BAC-2	0.634	0.664	0.613	0.818	0.582	0.564	0.542	0.6	0.884	0.881	0.926	0.875	0.856	0.671	0.572	0.622	0.537	0.847
NCI-H2405	0.785	0.688	0.552	0.573	–	0.393	0.425	0.434	–	1.05	1.16	1.12	0.762	0.706	0.76	0.744	0.433	1.09
NCI-H358	0.505	0.427	0.344	0.406	0.303	0.336	0.435	0.338	0.489	0.472	0.555	0.463	0.304	0.22	0.259	0.251	0.351	0.424
NCI-H1944	0.72	0.657	0.669	0.834	0.322	0.342	0.379	0.364	0.944	0.831	0.836	0.859	0.679	0.536	0.426	0.582	0.399	0.842
EPLC-272H	1.03	0.876	0.719	1.1	0.296	0.176	0.317	0.309	1	0.943	0.925	0.898	0.885	0.668	0.601	0.72	0.267	0.847
EBC-1	1.04	0.608	0.642	0.431	0.503	0.366	0.385	0.335	0.268	0.206	0.211	0.223	0.208	0.19	0.239	0.205	0.302	0.223
NCI-H1915	1.09	1.08	1.04	1.06	0.933	0.984	0.994	1.06	0.99	0.929	0.939	1.01	0.964	0.999	1.01	0.994	0.657	0.866
NCI-H596	0.573	0.264	0.356	0.471	0.391	0.427	0.384	0.406	1.08	1.04	1.16	1.18	1.04	0.849	0.848	0.783	0.362	1.06
NCI-H322M	0.694	0.539	0.557	0.895	0.52	0.544	0.439	0.538	0.553	0.372	0.587	0.566	0.533	0.441	0.374	0.341	0.511	0.696
NCI-H1299	1.11	1.05	1.07	1.09	0.59	0.828	0.845	0.845	0.958	0.979	1.01	0.935	1.01	1.03	0.964	0.967	0.825	0.995
NCI-H2228	0.709	0.518	0.533	0.529	0.442	0.356	0.365	0.535	0.902	1.13	1.24	1.08	1.18	0.721	0.908	0.578	0.387	0.848
IA-LM	0.83	0.674	0.69	0.698	0.38	0.346	0.318	0.519	0.88	0.723	0.645	0.729	0.702	0.935	0.647	0.601	0.351	0.703
NCI-H647	1.24	0.957	0.864	0.913	–	0.394	0.333	0.442	0.995	1	1.19	1.09	1.07	1.03	0.84	0.457	0.408	1.11
SK-MES-1	0.962	0.676	–	0.843	0.392	0.405	0.381	0.339	0.46	0.481	0.465	0.454	0.477	0.438	0.364	0.448	0.403	0.418
NCI-H2170	0.728	0.658	0.606	0.728	0.278	0.347	0.331	0.344	0.243	0.282	0.262	0.293	0.245	0.258	0.283	0.271	0.294	0.228
NCI-H2085	0.936	0.927	0.883	0.851	0.377	0.447	0.509	0.468	0.77	0.779	0.772	0.779	0.808	0.639	0.661	0.62	0.405	0.798

Cell Line	relative viability ([1]; first compound 0.04 µM)	relative viability ([1]; first compound 0.1265 µM)	relative viability ([1]; first compound 0.4 µM)	relative viability ([1]; first compound 1.265 µM)	relative viability (Motesanib + Pictilisib; first compound 0.01 µM)	relative viability (Motesanib + Pictilisib; first compound 0.03162 µM)	relative viability (Motesanib + Pictilisib; first compound 0.3162 µM)	relative viability (Motesanib + Pictilisib; first compound 1 µM)	relative viability (Motesanib + Lapatinib; first compound 0.01 µM)	relative viability (Motesanib + Lapatinib; first compound 0.03162 µM)	relative viability (Motesanib + Lapatinib; first compound 0.3162 µM)	relative viability (Motesanib + Lapatinib; first compound 1 µM)	relative viability ([2]; first compound 0.04 µM)	relative viability ([2]; first compound 0.1265 µM)	relative viability ([2]; first compound 0.4 µM)	relative viability ([2]; first compound 1.265 µM)	relative viability (Motesanib + Pictilisib; first compound 0.1 µM)	relative viability (Motesanib + Lapatinib; first compound 0.1 µM)
SW 1573	0.802	0.518	0.523	0.715	0.479	0.437	0.54	0.563	1.16	1.09	0.929	1.33	1.04	0.902	0.729	1	0.617	1
NCI-H727	0.33	0.24	0.221	0.303	0.324	0.369	0.464	0.379	0.821	0.902	1.13	0.787	0.692	0.371	0.247	0.294	0.463	0.858
LOU-NH91	0.68	0.664	0.614	0.675	0.466	0.523	0.547	0.568	0.724	0.771	0.754	0.765	0.671	0.567	0.601	0.564	0.563	0.752
NCI-H3122	0.637	0.514	0.631	0.564	0.46	0.534	0.626	0.667	0.991	1.03	1.03	1.02	0.94	1.03	0.958	1.03	0.618	0.965
NCI-H460	0.401	0.207	0.222	0.389	0.356	0.424	0.364	0.493	0.961	0.779	0.974	0.864	1.05	0.798	0.886	0.829	0.302	0.892
NCI-H650	1.04	0.731	0.891	0.811	0.832	0.757	0.992	0.854	0.815	0.932	1.13	0.888	0.853	0.828	0.625	0.55	0.875	0.897
NCI-H661	0.592	0.665	0.793	0.566	0.327	0.35	0.379	0.43	0.429	0.563	0.386	0.49	0.492	0.839	0.32	0.389	0.348	0.511
NCI-H1793	0.731	0.625	0.553	0.731	0.364	0.282	0.34	0.469	0.858	0.636	0.701	0.773	0.801	0.469	0.568	0.53	0.301	0.64
NCI-H1734	0.571	0.509	0.476	0.605	0.446	0.496	0.479	0.48	0.99	1.14	1.14	0.99	1	0.814	0.817	0.98	0.461	1.03
LXF-289	1.09	0.991	0.975	1.1	0.776	0.811	0.806	0.835	0.893	0.867	1	0.949	0.914	0.856	0.831	0.802	0.774	0.909
H3255	0.713	0.771	0.514	0.699	0.473	0.487	0.488	0.427	0.228	0.276	0.268	0.254	0.243	0.291	0.226	0.155	0.491	0.224
201T	0.893	0.836	0.767	0.942	0.671	0.688	0.679	0.71	1.01	1.04	1.04	0.903	1.05	0.91	0.717	0.862	0.68	1.08
NCI-H2126	0.637	0.561	0.531	0.657	0.531	0.539	0.553	0.508	0.811	0.768	0.789	0.728	0.693	0.454	0.376	0.399	0.476	0.718
HOP-62	1.04	0.843	0.897	1.11	0.651	0.843	1.08	1.01	0.968	0.97	1.33	1.09	0.978	0.907	1.05	1.04	0.507	0.957
CAL-12T	1.16	1.14	0.762	0.953	–	–	0.403	0.434	–	–	0.649	0.65	0.8	0.442	0.564	0.555	0.358	0.67
NCI-H520	0.918	0.688	0.926	0.801	0.269	0.267	0.284	0.207	0.714	0.823	0.882	0.899	0.98	0.841	0.826	0.875	0.345	0.877
NCI-H1755	0.91	0.746	0.806	0.999	0.395	0.423	0.454	0.402	1.02	1.05	1.28	0.997	1.02	0.864	0.858	0.994	0.442	1.08
NCI-H2023	0.407	0.374	0.376	0.407	0.234	0.226	0.239	0.238	0.939	0.778	0.988	0.897	0.722	0.542	0.259	0.236	0.276	0.54
